One may read the IC50 as the point on the concentration scale where inhibition reaches its midpoint.

This experiment concerns the target USP30 (Homo sapiens (Human), UniProt Q70CQ3). Briefly: USP30 Biochemical IC50 Assay. The note with it: fluorescence polarisation, TAMRA labelled peptide linked to ubiquitin; 30 min pre-incubation, read after 2 h; read-out: IC50 range. The method, then:
Reactions were performed in duplicate in black 384 well plates (small volume, Greiner 784076) in a final reaction volume of 21 μl. Either 1 μl of 50% DMSO or diluted compound was added to the plate. […] Enzyme and compound were incubated for 30 min at room temp. Reactions were initiated by the addition of 50 nM of TAMRA labelled peptide linked to ubiquitin via an iso-peptide bond as fluorescence polarisation substrate. Reactions were read immediately after addition of substrate and following a 2 h incubation at room temperature. Readings were performed on a Pherastar Plus (BMG Labtech). λ Excitation 540 nm; λ Emission 590 nm.

USP30, sequence (Q70CQ3 57-517): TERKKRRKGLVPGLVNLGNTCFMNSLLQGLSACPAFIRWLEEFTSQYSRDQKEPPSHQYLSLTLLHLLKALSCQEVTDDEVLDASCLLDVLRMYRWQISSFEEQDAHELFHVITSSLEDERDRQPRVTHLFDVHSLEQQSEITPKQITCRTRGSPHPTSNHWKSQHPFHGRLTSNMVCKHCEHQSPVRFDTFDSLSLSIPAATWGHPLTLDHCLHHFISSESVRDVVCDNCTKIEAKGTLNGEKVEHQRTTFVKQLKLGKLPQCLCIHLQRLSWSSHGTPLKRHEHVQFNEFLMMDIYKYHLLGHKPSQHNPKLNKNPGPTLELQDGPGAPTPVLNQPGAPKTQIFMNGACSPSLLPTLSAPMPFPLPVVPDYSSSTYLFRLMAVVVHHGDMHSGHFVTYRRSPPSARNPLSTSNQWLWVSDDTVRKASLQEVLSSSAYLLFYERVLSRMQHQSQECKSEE

With `N#CN1CCCC1c1noc(-c2cccc(-c3ccoc3)c2)n1` (stereo not drawn) [Example 160, 2-(5-(3-(Furan-3-yl)phenyl)-1,2,4-oxadiazol-3-yl)pyrrolidine-1-carbonitrile], the IC50 was in the range of 0.1 to 1 µM.
Then `N#CN1CCC(c2cc(-c3ccc(-c4ccccc4)nc3)n[nH]2)C1` (stereo not drawn) [Example 40], with 0.1 to 1 µM; and `N#Cc1cc(-c2ccnc(-c3nc([C@@H]4CCCN4C#N)no3)c2)ccn1` [Example 182, (S)-2′-(3-(1-Cyanopyrrolidin-2-yl)-1,2,4-oxadiazol-5-yl)-[4,4′-bipyridine]-2-carbonitrile], with 0.1 to 1 µM; and `C[C@@H]1CN(C#N)C[C@H]1c1cc(-c2cccc(-c3ccccc3)c2)n(C)n1` [Example 25], with 0.1 to 1 µM.
The result for `N#Cc1cccc(-c2ccc3nc([C@@H]4CCCN4C#N)oc3c2)c1` [Example 128, (S)-2-(6-(3-Cyanophenyl)benzo[d]oxazol-2-yl)pyrrolidine-1-carbonitrile] reads 0.1 to 1 µM; that for `CC(C)Oc1ccc(-c2ccc3nc(C4CCN(C#N)C4)[nH]c3c2)cn1` (stereo not drawn) [Example 77, 3-(6-(6-Isopropoxypyridin-3-yl)-1H-benzo[d]imidazol-2-yl)pyrrolidine-1-carbonitrile], 0.1 to 1 µM.
The result for `N#CN1CCC(c2cc(-c3cccc(C(N)=O)c3)n[nH]2)C1` (stereo not drawn) [Example 6, 3-(5-(1-Cyanopyrrolidin-3-yl)-1H-pyrazol-3-yl)benzamide] reads 1 to 10 µM; that for `COc1ncccc1-c1cccc(-c2nc(C3CCCN3C#N)no2)c1` (stereo not drawn) [Example 162, 2-(5-(3-(2-Methoxypyridin-3-yl)phenyl)-1,2,4-oxadiazol-3-yl)pyrrolidine-1-carbonitrile], 0.1 to 1 µM.
As for `N#CN1CCC(c2cc(-c3ccc(-c4ncccn4)cn3)n[nH]2)C1` (stereo not drawn) [Example 195, 3-(3-(5-(Pyrimidin-2-yl)pyridin-2-yl)-1H-pyrazol-5-yl)pyrrolidine-1-carbonitrile], the IC50 is less than 0.1 µM.
For the compound `COc1cc(-c2cccc(-c3nc(C4CCCN4C#N)no3)c2)ccn1` (stereo not drawn) [Example 144, 2-(5-(3-(2-Methoxypyridin-4-yl)phenyl)-1,2,4-oxadiazol-3-yl)pyrrolidine-1-carbonitrile], the IC50 was 1 to 10 µM.
With `Cc1cn(-c2ccc3n(c2=O)CCN([C@@H]2CCN(C#N)C2)C3=O)cn1` [Example 121, (R)-3-(7-(4-Methyl-1H-imidazol-1-yl)-1,6-dioxo-1,3,4,6-tetrahydro-2H-pyrido[1,2-a]pyrazin-2-yl)pyrrolidine-1-carbonitrile], the IC50 was 1 to 10 µM.
The result for `N#CN1CCC(c2cnc3cc(-c4ccccc4)ccn23)C1` (stereo not drawn) [Example 124, 3-(7-Phenylimidazo[1,2-a]pyridin-3-yl)pyrrolidine-1-carbonitrile] reads 0.1 to 1 µM.
The result for `N#Cc1ccc(C2CN(c3noc(C4CCN(C#N)C4)n3)C2)cc1` (stereo not drawn) [Example 198, 3-(3-(3-(4-Cyanophenyl)azetidin-1-yl)-1,2,4-oxadiazol-5-yl)pyrrolidine-1-carbonitrile] reads 0.1 to 1 µM; that for `N#CN1CCC(c2cc(-c3ccc(-c4ccccc4)cn3)n[nH]2)C1` (stereo not drawn) [Example 194, 3-(5-(5-Phenylpyridin-2-yl)-1H-pyrazol-3-yl)pyrrolidine-1-carbonitrile], less than 0.1 µM.
The result for `N#CN1CCC(c2cc(-c3cncc(-c4ccccc4)c3)[nH]n2)C1` (stereo not drawn) [Example 36, 3-(5-(5-Phenylpyridin-3-yl)-1H-pyrazol-3-yl)pyrrolidine-1-carbonitrile] reads 0.1 to 1 µM; that for `Cc1n[nH]c2cc(-c3ccc4oc([C@@H]5CCCN5C#N)nc4c3)ccc12` [Example 134, (S)-2-(5-(3-Methyl-1H-indazol-6-yl)-benzo[d]oxazol-2-yl)pyrrolidine-1-carbonitrile], 1 to 10 µM.
`C[C@@H]1CN(C#N)C[C@H]1c1n[nH]c(-c2cccc(-c3ccccc3)c2)n1` (single isomer, unassigned) [Example 116, Trans-3-(3-([1,1′-biphenyl]-3-yl)-1H-1,2,4-triazol-5-yl)-4-methylpyrrolidine-1-carbonitrile]: the IC50 was 0.1 to 1 µM.
The result for `N#CN1CCC[C@H]1c1nc2cc(-c3cccc(OC(F)(F)F)c3)ccc2o1` [Example 133, (S)-2-(5-(3-(Trifluoromethoxy)phenyl)-benzo[d]oxazol-2-yl)pyrrolidine-1-carbonitrile] reads 0.1 to 1 µM.
Then `N#CN1CCC(c2cc(-c3ccc4ccccc4c3)n[nH]2)C1` (stereo not drawn) [Example 18, 3-(3-(Naphthalen-2-yl)-1H-pyrazol-5-yl)pyrrolidine-1-carbonitrile], with 0.1 to 1 µM.
In the case of `N#CN1CCC(c2nc3ccc(-c4ccccc4)nc3[nH]2)C1` (stereo not drawn) [Example 97, 3-(5-Phenyl-3H-imidazo[4,5-b]pyridin-2-yl)pyrrolidine-1-carbonitrile], the IC50 fell in the range of 1 to 10 µM.
Then `N#Cc1cccc(-c2cnc3[nH]c(C4CCN(C#N)C4)nc3c2)c1` (stereo not drawn) [Example 85, 3-(6-(3-Cyanophenyl)-3H-imidazo[4,5-b]pyridin-2-yl)pyrrolidine-1-carbonitrile], with 0.1 to 1 µM; and `CNC(=O)c1cccc(-c2cnc3[nH]c(C4CCN(C#N)C4)nc3c2)c1` (single isomer, unassigned) [Example 93, 3-(2-(1-Cyanopyrrolidin-3-yl)-3H-imidazo[4,5-b]pyridin-6-yl)-N-methylbenzamide], with 0.1 to 1 µM.
On to `N#Cc1cccc(-c2cc(-c3nc(C4CCCN4C#N)no3)ncn2)c1` (stereo not drawn) [Example 189, 2-(5-(6-(3-Cyanophenyl)pyrimidin-4-yl)-1,2,4-oxadiazol-3-yl)pyrrolidine-1-carbonitrile], for which the IC50 is 0.1 to 1 µM.
For `N#CN1CCCC1c1noc(-c2cccc(-c3ccc([N+](=O)[O-])cc3)c2)n1` (stereo not drawn) [Example 157, 2-(5-(4′-Nitro-[1,1′-biphenyl]-3-yl)-1,2,4-oxadiazol-3-yl)pyrrolidine-1-carbonitrile], the IC50 was less than 0.1 µM.
The result for `N#CN1CCC(c2nc3cc(-c4ccc5[nH]ncc5c4)cnc3[nH]2)C1` (stereo not drawn) [Example 87, 3-(6-(1H-Indazol-5-yl)-3H-imidazo[4,5-b]pyridin-2-yl)pyrrolidine-1-carbonitrile] reads 0.1 to 1 µM.
The result for `Cc1ccc(S(=O)(=O)NCc2ccccc2)cc1-c1ccc2oc([C@@H]3CCCN3C#N)nc2c1` [Example 139, (S)-N-Benzyl-3-(2-(1-cyanopyrrolidin-2-yl)-benzo[d]oxazol-5-yl)-4-methyl-benzenesulfonamide] reads 1 to 10 µM; that for `CO[C@@H]1CCN(c2ccc(-c3nc(C4CCN(C#N)C4)no3)cc2)C1` (stereo partly drawn) [Example 62, 3-(5-(4-((R)-3-Methoxypyrrolidin-1-yl)phenyl)-1,2,4-oxadiazol-3-yl)pyrrolidine-1-carbonitrile], 1 to 10 µM; that for `N#CN1CCCC1c1noc(-c2cccc(-c3ccc(C(N)=O)cc3)c2)n1` (stereo not drawn) [Example 149, 3′-(3-(1-Cyanopyrrolidin-2-yl)-1,2,4-oxadiazol-5-yl)-[1,1′-biphenyl]-4-carboxamide], 1 to 10 µM.
On to `N#Cc1ccc(-c2nccc(-c3nc([C@@H]4CCCN4C#N)no3)n2)cc1` [Example 185, (S)-2-(5-(2-(4-Cyanophenyl)pyrimidin-4-yl)-1,2,4-oxadiazol-3-yl)pyrrolidine-1-carbonitrile], for which the IC50 is 0.1 to 1 µM.
The result for `Cn1cc(-c2cc(-c3nc([C@@H]4CCN(C#N)C4)no3)ccc2F)cn1` [Example 70, (R)-3-(5-(4-Fluoro-3-(1-methyl-1H-pyrazol-4-yl)phenyl)-1,2,4-oxadiazol-3-yl)pyrrolidine-1-carbonitrile] reads 0.1 to 1 µM.

The values above are taken from patent publication US11352339B2 (MISSION THERAPEUTICS LIMITED, priority 2016, dated 2022).
